In the supplement of paper PMC10307832:

Experiments:
Assay in all cases: relative viability (nuclei count vs DMSO), 5 days (fraction); higher = more cells survive
NCI-H1975 = test system: NCI-H1975
Summary of the method: (§1)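 Nuclei were stained with Hoechst during a one-step fixation (final 0.05% Triton X-100, 1% formaldehyde, 1 ug/ml Hoechst) carried out 5 days after dosing, then counted on 4× images. The cells, lung cancer lines in 1536-well plates, had been dosed by pin tool the day after seeding with one drug alone or a fixed anchor-drug dose plus five library-drug doses (not always all listed) in √10 steps. Relative viability is the nuclei count in treated wells divided by that in vehicle wells, and each value is the median of duplicate plates.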

NCI-H1944 = test system: NCI-H1944
Summary of the method: as §1

NCI-H650 = test system: NCI-H650
Summary of the method: as §1

NCI-H2087 = test system: NCI-H2087
Summary of the method: as §1

HCC-78 = test system: HCC-78
Summary of the method: as §1

NCI-H838 = test system: NCI-H838
Summary of the method: as §1

SK-MES-1 = test system: SK-MES-1
Summary of the method: as §1

LC-2-ad = test system: LC-2-ad
Summary of the method: as §1

PC-3 [JPC-3] = test system: PC-3 [JPC-3]
Summary of the method: as §1

NCI-H1651 = test system: NCI-H1651
Summary of the method: as §1

BEN = test system: BEN
Summary of the method: as §1

LXF-289 = test system: LXF-289
Summary of the method: as §1

LCLC-97TM1 = test system: LCLC-97TM1
Summary of the method: as §1

NCI-H661 = test system: NCI-H661
Summary of the method: as §1

NCI-H1666 = test system: NCI-H1666
Summary of the method: as §1

NCI-H358 = test system: NCI-H358
Summary of the method: as §1

NCI-H596 = test system: NCI-H596
Summary of the method: as §1

LK-2 = test system: LK-2
Summary of the method: as §1

NCI-H1355 = test system: NCI-H1355
Summary of the method: as §1

LU99A = test system: LU99A
Summary of the method: as §1

Nc1ccn([C@@H]2O[C@H](CO)[C@@H](O)[C@@H]2O)c(=O)n1 [Cytarabine] + Cc1nc(NC(=O)N2CCC[C@H]2C(N)=O)sc1-c1ccnc(C(C)(C)C(F)(F)F)c1 [Alpelisib] (partner 2 µM)
relative viability (NCI-H1975; first compound 0.005 µM): 0.442 | relative viability (NCI-H1975; first compound 0.01581 µM): 0.761 | relative viability (NCI-H1975; first compound 0.05 µM): 0.801 | relative viability (NCI-H1975; first compound 0.1581 µM): 0.418 | relative viability (NCI-H1975; first compound 0.5 µM): 0.313 | relative viability (NCI-H1944; first compound 0.005 µM): 0.563 | relative viability (NCI-H1944; first compound 0.01581 µM): 0.361 | relative viability (NCI-H1944; first compound 0.05 µM): 0.364 | relative viability (NCI-H1944; first compound 0.1581 µM): 0.183 | relative viability (NCI-H1944; first compound 0.5 µM): 0.144 | relative viability (NCI-H650; first compound 0.005 µM): 0.732 | relative viability (NCI-H650; first compound 0.01581 µM): 0.81 | relative viability (NCI-H650; first compound 0.05 µM): 0.468 | relative viability (NCI-H650; first compound 0.1581 µM): 0.218 | relative viability (NCI-H650; first compound 0.5 µM): 0.224 | relative viability (NCI-H2087; first compound 0.005 µM): 0.962 | relative viability (NCI-H2087; first compound 0.01581 µM): 1.1 | relative viability (NCI-H2087; first compound 0.05 µM): 0.899 | relative viability (NCI-H2087; first compound 0.1581 µM): 0.666 | relative viability (NCI-H2087; first compound 0.5 µM): 0.452 | relative viability (HCC-78; first compound 0.005 µM): 0.41 | relative viability (HCC-78; first compound 0.01581 µM): 0.298 | relative viability (HCC-78; first compound 0.05 µM): 0.281 | relative viability (HCC-78; first compound 0.1581 µM): 0.185 | relative viability (HCC-78; first compound 0.5 µM): 0.202 | relative viability (NCI-H838; first compound 0.005 µM): 0.886 | relative viability (NCI-H838; first compound 0.01581 µM): 1.12 | relative viability (NCI-H838; first compound 0.05 µM): 0.909 | relative viability (NCI-H838; first compound 0.1581 µM): 0.452 | relative viability (NCI-H838; first compound 0.5 µM): 0.252 | relative viability (SK-MES-1; first compound 0.005 µM): 0.702 | relative viability (SK-MES-1; first compound 0.01581 µM): 0.688 | relative viability (SK-MES-1; first compound 0.05 µM): 0.393 | relative viability (SK-MES-1; first compound 0.1581 µM): 0.243 | relative viability (SK-MES-1; first compound 0.5 µM): 0.21 | relative viability (LC-2-ad; first compound 0.005 µM): 0.898 | relative viability (LC-2-ad; first compound 0.01581 µM): 0.785 | relative viability (LC-2-ad; first compound 0.05 µM): 0.802 | relative viability (LC-2-ad; first compound 0.1581 µM): 0.441 | relative viability (LC-2-ad; first compound 0.5 µM): 0.228 | relative viability (PC-3 [JPC-3]; first compound 0.005 µM): 0.95 | relative viability (PC-3 [JPC-3]; first compound 0.01581 µM): 0.926 | relative viability (PC-3 [JPC-3]; first compound 0.05 µM): 0.927 | relative viability (PC-3 [JPC-3]; first compound 0.1581 µM): 0.634 | relative viability (PC-3 [JPC-3]; first compound 0.5 µM): 0.65 | relative viability (NCI-H1651; first compound 0.005 µM): 0.817 | relative viability (NCI-H1651; first compound 0.01581 µM): 1.01 | relative viability (NCI-H1651; first compound 0.05 µM): 1.17 | relative viability (NCI-H1651; first compound 0.1581 µM): 0.401 | relative viability (NCI-H1651; first compound 0.5 µM): 0.261 | relative viability (BEN; first compound 0.005 µM): 0.832 | relative viability (BEN; first compound 0.01581 µM): 0.821 | relative viability (BEN; first compound 0.05 µM): 0.634 | relative viability (BEN; first compound 0.1581 µM): 0.418 | relative viability (BEN; first compound 0.5 µM): 0.353 | relative viability (LXF-289; first compound 0.005 µM): 1.02 | relative viability (LXF-289; first compound 0.01581 µM): 1.05 | relative viability (LXF-289; first compound 0.05 µM): 0.764 | relative viability (LXF-289; first compound 0.1581 µM): 0.356 | relative viability (LXF-289; first compound 0.5 µM): 0.268 | relative viability (LCLC-97TM1; first compound 0.005 µM): 0.235 | relative viability (LCLC-97TM1; first compound 0.01581 µM): 0.124 | relative viability (LCLC-97TM1; first compound 0.1581 µM): 0.101 | relative viability (LCLC-97TM1; first compound 0.5 µM): 0.0953 | relative viability (NCI-H661; first compound 0.005 µM): 0.811 | relative viability (NCI-H661; first compound 0.01581 µM): 0.733 | relative viability (NCI-H661; first compound 0.05 µM): 0.405 | relative viability (NCI-H661; first compound 0.1581 µM): 0.24 | relative viability (NCI-H661; first compound 0.5 µM): 0.214 | relative viability (NCI-H1666; first compound 0.005 µM): 0.751 | relative viability (NCI-H1666; first compound 0.01581 µM): 0.855 | relative viability (NCI-H1666; first compound 0.05 µM): 0.647 | relative viability (NCI-H1666; first compound 0.1581 µM): 0.279 | relative viability (NCI-H1666; first compound 0.5 µM): 0.35 | relative viability (NCI-H358; first compound 0.005 µM): 0.573 | relative viability (NCI-H358; first compound 0.01581 µM): 0.516 | relative viability (NCI-H358; first compound 0.05 µM): 0.363 | relative viability (NCI-H358; first compound 0.1581 µM): 0.177 | relative viability (NCI-H358; first compound 0.5 µM): 0.148 | relative viability (NCI-H596; first compound 0.005 µM): 0.5 | relative viability (NCI-H596; first compound 0.01581 µM): 0.567 | relative viability (NCI-H596; first compound 0.05 µM): 0.433 | relative viability (NCI-H596; first compound 0.1581 µM): 0.418 | relative viability (NCI-H596; first compound 0.5 µM): 0.315 | relative viability (LK-2; first compound 0.005 µM): 0.641 | relative viability (LK-2; first compound 0.01581 µM): 0.716 | relative viability (LK-2; first compound 0.05 µM): 0.381 | relative viability (LK-2; first compound 0.1581 µM): 0.276 | relative viability (LK-2; first compound 0.5 µM): 0.245 | relative viability (NCI-H1355; first compound 0.005 µM): 0.825 | relative viability (NCI-H1355; first compound 0.01581 µM): 0.758 | relative viability (NCI-H1355; first compound 0.05 µM): 0.756 | relative viability (NCI-H1355; first compound 0.1581 µM): 0.363 | relative viability (NCI-H1355; first compound 0.5 µM): 0.264 | relative viability (LU99A; first compound 0.005 µM): 0.519 | relative viability (LU99A; first compound 0.01581 µM): 0.565 | relative viability (LU99A; first compound 0.05 µM): 0.51 | relative viability (LU99A; first compound 0.1581 µM): 0.5 | relative viability (LU99A; first compound 0.5 µM): 0.406
